Test results: patent US20250129430A1, “HIGH ATP-AFFINITY PROTEIN AS THERAPEUTIC TARGET FOR INTRACTABLE CANCER MOLECULAR SUBTYPES AND INHIBITOR THEREOF” (VeraVerse Co., Ltd., priority 2021, published 2025)

Tests used:
Assay in all cases: Cell viability drug screen, 12-point dose-response AUC
Format in all cases: cell-based, human
[1] = system: AGS; settings: AGS cells; 72 hours; 12-point dose-response
Summary of the method: (§1)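 Dose-response AUC reflects 72 h drug exposure of gastric cancer cells in a 12-point, half-log format, with viability read by luminescence and normalized to DMSO (0.5%).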

[2] = system: Hs746T; settings: Hs746T cells; 72 hours; 12-point dose-response
Summary of the method: (§2)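 AUC comes from 12-point half-log dose–response curves, normalized to DMSO-treated cells and integrated trapezoidally, repeats averaged. Luminescent viability read after 72 h compound exposure at 37 °C; cells plated 5×10^3 per well 24 h before dosing.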

[3] = system: KATO3; settings: KATO3 cells; 72 hours; 12-point dose-response
Summary of the method: as §2

[4] = system: MKN1; settings: MKN1 cells; 72 hours; 12-point dose-response
Summary of the method: as §2

[5] = system: MKN28; settings: MKN28 cells; 72 hours; 12-point dose-response
Summary of the method: as §2

[6] = system: MKN45; settings: MKN45 cells; 72 hours; 12-point dose-response
Summary of the method: as §1

[7] = system: MKN74; settings: MKN74 cells; 72 hours; 12-point dose-response
Summary of the method: as §1

[8] = system: NCC19; settings: NCC19 cells; 72 hours; 12-point dose-response
Summary of the method: as §2

[9] = system: NCC20; settings: NCC20 cells; 72 hours; 12-point dose-response
Summary of the method: as §2

[10] = system: NCC24; settings: NCC24 cells; 72 hours; 12-point dose-response
Summary of the method: as §2

[11] = system: NCC59; settings: NCC59 cells; 72 hours; 12-point dose-response
Summary of the method: as §2

[12] = system: NCI_N87; settings: NCI_N87 cells; 72 hours; 12-point dose-response
Summary of the method: as §2

[13] = system: OCUM1; settings: OCUM1 cells; 72 hours; 12-point dose-response
Summary of the method: as §2

[14] = system: SK4; settings: SK4 cells; 72 hours; 12-point dose-response
Summary of the method: as §2

[15] = system: SNU16; settings: SNU16 cells; 72 hours; 12-point dose-response
Summary of the method: as §2

[16] = system: SNU1750; settings: SNU1750 cells; 72 hours; 12-point dose-response
Summary of the method: as §2

[17] = system: SNU1967; settings: SNU1967 cells; 72 hours; 12-point dose-response
Summary of the method: as §2

[18] = system: SNU1; settings: SNU1 cells; 72 hours; 12-point dose-response
Summary of the method: as §2

[19] = system: SNU216; settings: SNU216 cells; 72 hours; 12-point dose-response
Summary of the method: as §1

[20] = system: SNU484; settings: SNU484 cells; 72 hours; 12-point dose-response
Summary of the method: as §2

[21] = system: SNU601; settings: SNU601 cells; 72 hours; 12-point dose-response
Summary of the method: as §2

[22] = system: SNU620; settings: SNU620 cells; 72 hours; 12-point dose-response
Summary of the method: as §2

[23] = system: SNU638; settings: SNU638 cells; 72 hours; 12-point dose-response
Summary of the method: as §2

[24] = system: SNU668; settings: SNU668 cells; 72 hours; 12-point dose-response
Summary of the method: as §2

[25] = system: SNU719; settings: SNU719 cells; 72 hours; 12-point dose-response
Summary of the method: as §1

[26] = system: YCC11; settings: YCC11 cells; 72 hours; 12-point dose-response
Summary of the method: as §2

[27] = system: YCC2; settings: YCC2 cells; 72 hours; 12-point dose-response
Summary of the method: as §2

[28] = system: YCC3; settings: YCC3 cells; 72 hours; 12-point dose-response
Summary of the method: as §2

[29] = system: FU97; settings: FU97 cells; 72 hours; 12-point dose-response
Summary of the method: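 Trapezoidal AUC of a 12-point, DMSO-normalized dose-response curve. Luminescent viability was measured after 72 h of exposure at 37° C to half-log serial dilutions (0.5% DMSO control), dosed 24 h after plating FU97 cells at 5×10^3 per well.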

| Structure (SMILES) | area under the viability curve (AUC), normalized [1] | area under the viability curve (AUC), normalized [2] | area under the viability curve (AUC), normalized [3] | area under the viability curve (AUC), normalized [4] | area under the viability curve (AUC), normalized [5] | area under the viability curve (AUC), normalized [6] | area under the viability curve (AUC), normalized [7] | area under the viability curve (AUC), normalized [8] | area under the viability curve (AUC), normalized [9] | area under the viability curve (AUC), normalized [10] | area under the viability curve (AUC), normalized [11] | area under the viability curve (AUC), normalized [12] | area under the viability curve (AUC), normalized [13] | area under the viability curve (AUC), normalized [14] | area under the viability curve (AUC), normalized [15] | area under the viability curve (AUC), normalized [16] | area under the viability curve (AUC), normalized [17] | area under the viability curve (AUC), normalized [18] | area under the viability curve (AUC), normalized [19] | area under the viability curve (AUC), normalized [20] | also measured |
| --- | --- | --- | --- | --- | --- | --- | --- | --- | --- | --- | --- | --- | --- | --- | --- | --- | --- | --- | --- | --- | --- |
| CCCCc1nc2cc(/C=C/C(=O)NO)ccc2n1CCN(CC)CC [SB939 (Pracinostat), Pracinostat] | −1.799 | 0.7098 | 0.2173 | 0.232 | −0.5866 | 1.672 | 0.3806 | 0.6538 | −0.08068 | −1.137 | 1.053 | −0.6724 | 0.7195 | −0.454 | −1.067 | −1.156 | −0.4581 | −1.4 | 0.6217 | 0.208 | area under the viability curve (AUC), normalized [21]: 0.1827; area under the viability curve (AUC), normalized [22]: −1.199; area under the viability curve (AUC), normalized [23]: −0.278; area under the viability curve (AUC), normalized [24]: 0.519; area under the viability curve (AUC), normalized [25]: 2.187; area under the viability curve (AUC), normalized [26]: −0.768; area under the viability curve (AUC), normalized [27]: −0.02045; area under the viability curve (AUC), normalized [28]: 1.403; area under the viability curve (AUC), normalized [29]: 0 |
| Cc1ccc(C(=O)N(CCCN)[C@@H](c2oc3cc(Cl)ccc3c(=O)c2Cc2ccccc2)C(C)C)cc1 [SB 743921] | −2.366 | 1.359 | 3.189 | −1.406 | −1.699 | 2.818 | 0.00599 | 1.296 | −1.288 | −2.238 | 2.285 | −1.205 | 1.653 | −0.9769 | −1.454 | 0.00014 | 0.8572 | −0.9587 | 2.438 | −1.3076 | area under the viability curve (AUC), normalized [21]: −1.703; area under the viability curve (AUC), normalized [22]: −2.366; area under the viability curve (AUC), normalized [23]: −0.2572; area under the viability curve (AUC), normalized [24]: 0; area under the viability curve (AUC), normalized [25]: 2.115; area under the viability curve (AUC), normalized [26]: −1.353; area under the viability curve (AUC), normalized [27]: 0.2048; area under the viability curve (AUC), normalized [28]: 2.421; area under the viability curve (AUC), normalized [29]: 0.8407 |
